Experimental data taken from patent US11872236B2, “Pharmacological agents for treating ocular diseases” (CALASIA PHARMACEUTICALS, INC., priority 2018, dated 2024).
Values after ≈ are worked out from the molar mass of the structure shown. Like-named read-outs stand apart in the source and are kept apart here.

What was measured:
SRA 01/04 HLE cells = experiment: Cell-based UV protection, viability by Alamar blue; set-up: species or system human; details: Table 5;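 note: cells pretreated with compound at a range of concentrations before UV irradiation, viability read 24 h after exposure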
[1] = test system: human lens epithelial (HLE) cells; experiment: Cell-based heat protection, viability by Alamar blue; set-up: Cell Heat % protection: concentration or dose not given beside the values; details: for Cell-based [Heat] (max % net protection): Table 5
Experimental: Alamar blue was used for assessing viability. Mean±SEM of the measurements are shown.
Cell-based using assays using human lens epithelial cell lines SRA 01/04 and B3 were also performed. The cells were exposed to UV or heat and cell viability assessed 24 hours post-exposure by Alamar blue staining. In another experiment, SRA 01/04 cells were pre-incubated with varying concentrations of compounds two hours prior to UV exposure. Relative protection was measured as percent viability compared to vehicle control 24 hours following UV exposure. Mean±SEM of the measurements are shown.

alpha-A crystalline = molecular target: T1, alpha-A crystalline (Homo sapiens, UniProt P02489); experiment: Ca+2 and UVC induced aggregation of alpha-A crystalline (absorbance screen); type: biochemical; details: for inhibition at 200 µM: Ca+2 and UVC induced aggregation of alpha-A crystalline, read-out: Percent protection (at 200 μM); for EC50: preventing Ca+2 and UVC induced aggregation of alpha-A crystalline;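 for all read-outs here: recombinant human alpha-A crystallin (500 µg/ml) preincubated 30 min with compound, then UV-induced aggregation tracked by absorbance at time points from 0 to 120 min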
T1 sequence (P02489 1-173): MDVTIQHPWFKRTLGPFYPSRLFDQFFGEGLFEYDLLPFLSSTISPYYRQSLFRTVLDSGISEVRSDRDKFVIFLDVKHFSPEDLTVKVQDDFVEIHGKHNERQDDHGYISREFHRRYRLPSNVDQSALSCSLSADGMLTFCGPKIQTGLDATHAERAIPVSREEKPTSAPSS

[2] = Solubility with FDA approved excipients; type: physicochemical
Experimental: Solubility: The solubility of CAP1160 and CAP4196 was tested with different FDA approved excipients such as cyclodextrin, PEG-b-PCL, Kolliphor-EL, Kolliphor-40, sorbitol, propelyne gycol, sodium phosphate, etc. […] This makes the formulation safe for topical use (see Table 6).

TTR = TTR (Homo sapiens, UniProt P02766); details: Sant'Anna, R. et al. (2016); cited from earlier work
[3] = test system: New Zealand white rabbits; experiment: Ocular safety / MTD, repeated dose for 7 days; type: in vivo; details: for Mortality and Morbidity: 50 μL × 4 times a day in each eye, male
Experimental: Prodrug CAP4196 is well-tolerated up to 10% concentration in New Zealand white rabbits. Initial maximum tolerated dose studies (MTD) help identify observable signs of toxicity and provide a rationale for setting dose levels in later definitive studies. Therefore, the MTD of CAP4196 was evaluated in New Zealand white rabbits. Four animals per group were dosed with increasing concentrations (0.25, 2.5, 8 and 10%) of CAP4196 at 50 μl volume q.i.d. dosing at 2 hrs interval. Following the dosing, the animals were evaluated for mortality and morbidity, ophthalmological examination, body weight, and clinical pathology before start of dosing then on dosing days 2, 4, and 6 prior to first dose instillation and on day 7, one hour after last dose instillation.

porcine eye lens = experiment: Ex vivo eye lens exposed to UVC radiation, cataract scoring; details: Table 8; printed as a percentage
Experimental: The top row of the figure corresponds to lenses that were not exposed to UVC but contained same percent of DMSO as those that were exposed to UVC. The lenses were monitored and imaged for three days following the exposure to UVC. No drug was added to the lenses post UVC exposure.

Row | Compound | Cell-based [UV] (max % net protection) (SRA 01/04 HLE cells) | Cell-based [Heat] (max % net protection) [1] | also measured
1 | COc1ccc(C(=O)c2ccccc2)cc1OC [CAP4132] | 39% | 0% | –
2 | O=C(c1ccccc1)c1ccc(O)c(O)c1 [CAP1347] | 28% | 8% | inhibition at 200 µM (alpha-A crystalline): 13%; EC50 (alpha-A crystalline): 115 µM
3 | O=C(c1cccc([N+](=O)[O-])c1)c1ccc2c(c1)C(=O)OC2=O [CAP4265] | 129% | 17% | –
4 | Cc1ccc(C(=O)c2ccccc2)c(N)c1 [CAP4152] | 17% | 0% | –
5 | O=C(c1ccccc1)c1ccccc1 [CAP4127] | 55% | 9% | –
6 | COc1cc(O)c(C(=O)c2ccccc2)cc1S(=O)(=O)O [CAP4162] | 60% | 3% | –
7 | Cc1ccc(C(=O)c2cc(O)c(O)c([N+](=O)[O-])c2)cc1 [CAP1160, Tolcapone] | 68% | 23% | With Kolliphor 40 (1:1) In water [2]: 1; With PEG-b-PCL (1:1) mg/ml in water [2]: 1 mg/mL; improvement in solubility [2]: 10 fold; solubility ([2]; aqueous with cosolvent or surfactant or cyclodextrin, Solubility in water with (2-hydroxypropyl)-beta cyclodextrin mg/ml (1:1)): 2 mg/mL (≈ 7.32 mM); solubility ([2]; aqueous with cosolvent or surfactant or cyclodextrin, solubility): 1.5 mg/mL (≈ 5.49 mM); solubility ([2]; water, Solubility in water mg/ml): 0.1 mg/mL (≈ 0.366 mM); inhibition at 200 µM (alpha-A crystalline): 65%; EC50 (alpha-A crystalline): 63.5 µM; TTR aggregation inhibition (TTR): potent TTR aggregation inhibitor
8 | Cc1ccc(C(=O)c2cc(OP(=O)([O-])[O-])c(O)c([N+](=O)[O-])c2)cc1.[Na+].[Na+] [CAP4196, Sodium 2-hydroxy-5-(4-methylbenzoyl)-3-nitrophenyl phosphate] | 63% | 38% | pH of the formulation ([2]; 100 mg/ml, only water as solvent): 6.65; solubility ([2]; aqueous with cosolvent or surfactant or cyclodextrin, water with (2-hydroxypropyl)-beta cyclodextrin (1:1), read-out: Solubility in water with (2-hydroxypropyl)-beta cyclodextrin mg/ml (1:1)): 100 mg/mL; solubility ([2]; pH 6.65, only water as solvent, read-out: solubility): 100 mg/mL; improvement in solubility ([2]; phosphate prodrug, only water as solvent): greater than 660 fold; solubility ([2]; water, read-out: Solubility in water): 100 mg/mL; local reactions ([3]; 10% w/v, 50 μL, 4 times a day): only few temporary local reactions like excessive rubbing of eyes and redness; systemic toxicity ([3]; 10% w/v, 50 μL, 4 times a day): did not produced any systemic toxicity; MTD (highest dose concentration) ([3]; 50 μL, 4 times a day, 2 hours interval, 7 days): 10%; Mortality and Morbidity ([3]; ophthalmic formulation 0.25% w/v): 0; Mortality and Morbidity ([3]; ophthalmic formulation 4% w/v): 0; Mortality and Morbidity ([3]; ophthalmic formulation 8% w/v): 0; Mortality and Morbidity ([3]; ophthalmic formulation 10% w/v): 0; well-tolerated concentration ([3]; topical ocular, repeated dose 7 days): up to 10%
9 | COc1cc(O)c(C(=O)c2ccccc2)cc1S(=O)(=O)[O-].[Na+] [CAP4135] | 75% | 4% | –
10 | CNc1ccc2c(O)cc(S(=O)(=O)O)cc2c1 [CAP4184] | – | – | Ex-vivo (porcine eye lens): 15%; Cell Heat % protection ([1]; Table 8): 4%
11 | O=C(c1cc(O)c(O)c([N+](=O)[O-])c1)c1ccccc1F [CAP3089] | 31% | 0% | inhibition at 200 µM (alpha-A crystalline): 56%; EC50 (alpha-A crystalline): 362 µM
12 | O=C(c1ccccc1)c1ccccc1S(=O)(=O)c1ccccc1 [CAP4279] | 5% | 0% | –
13 | COc1cc(O)c(C(=O)c2cc(S(=O)(=O)[O-])c(OC)cc2O)cc1S(=O)(=O)[O-].[Na+].[Na+] [CAP4136] | 70% | 5% | –
14 | O=C(O)c1ccc(C(=O)c2ccccc2C(=O)O)cc1 [CAP4173] | 61% | 0% | –
15 | COc1ccc(C(=O)c2ccccc2)cc1 [CAP4130] | 55% | 42% | –
16 | Nc1ccc(C(=O)c2ccccc2)cc1N [CAP4129] | 37% | 0% | –
17 | O=C(c1ccccc1)c1ccc(O)c(O)c1O [CAP4133] | 22% | 18% | –
18 | NC(=O)Cc1cccc(C(=O)c2ccccc2)c1N [CAP4281] | 38% | 8% | –
19 | O=C(O)c1ccc(C(=O)c2ccccc2)cc1 [CAP4172] | 67% | 9% | –
20 | O=C(c1cccc(F)c1)c1cccc(F)c1 [CAP4161] | 38% | 8% | –
